Data published in US10961236B2, “(S)-2-(1-cyclopropylethyl)-5-(4-methyl-2-((6-(2-oxopyrrolidin-1-yl)pyridin-2-yl)amino) thiazol-5-yl)-7-(methylsulfonyl)isoindolin-1-one as a phosphatidylinositol 3-kinase inhibitor” (AstraZeneca AB, priority 2016, dated 2021).

Legend:
Format in all cases: biochemical
[1] = molecular target: recombinant human PI3Kα (6-His(p110-p85α)) (Homo sapiens (Human), UniProt P42336); assay: Enzymatic activity assay for recombinant human PI3Kα (ADP-Glo); settings: 1.2 nM PI3Kα, 20 μM ATP, 80 μM DiC8-PIP2, ADP-Glo
Sequence of recombinant human PI3Kα (6-His(p110-p85α)) (P42336 whole entry): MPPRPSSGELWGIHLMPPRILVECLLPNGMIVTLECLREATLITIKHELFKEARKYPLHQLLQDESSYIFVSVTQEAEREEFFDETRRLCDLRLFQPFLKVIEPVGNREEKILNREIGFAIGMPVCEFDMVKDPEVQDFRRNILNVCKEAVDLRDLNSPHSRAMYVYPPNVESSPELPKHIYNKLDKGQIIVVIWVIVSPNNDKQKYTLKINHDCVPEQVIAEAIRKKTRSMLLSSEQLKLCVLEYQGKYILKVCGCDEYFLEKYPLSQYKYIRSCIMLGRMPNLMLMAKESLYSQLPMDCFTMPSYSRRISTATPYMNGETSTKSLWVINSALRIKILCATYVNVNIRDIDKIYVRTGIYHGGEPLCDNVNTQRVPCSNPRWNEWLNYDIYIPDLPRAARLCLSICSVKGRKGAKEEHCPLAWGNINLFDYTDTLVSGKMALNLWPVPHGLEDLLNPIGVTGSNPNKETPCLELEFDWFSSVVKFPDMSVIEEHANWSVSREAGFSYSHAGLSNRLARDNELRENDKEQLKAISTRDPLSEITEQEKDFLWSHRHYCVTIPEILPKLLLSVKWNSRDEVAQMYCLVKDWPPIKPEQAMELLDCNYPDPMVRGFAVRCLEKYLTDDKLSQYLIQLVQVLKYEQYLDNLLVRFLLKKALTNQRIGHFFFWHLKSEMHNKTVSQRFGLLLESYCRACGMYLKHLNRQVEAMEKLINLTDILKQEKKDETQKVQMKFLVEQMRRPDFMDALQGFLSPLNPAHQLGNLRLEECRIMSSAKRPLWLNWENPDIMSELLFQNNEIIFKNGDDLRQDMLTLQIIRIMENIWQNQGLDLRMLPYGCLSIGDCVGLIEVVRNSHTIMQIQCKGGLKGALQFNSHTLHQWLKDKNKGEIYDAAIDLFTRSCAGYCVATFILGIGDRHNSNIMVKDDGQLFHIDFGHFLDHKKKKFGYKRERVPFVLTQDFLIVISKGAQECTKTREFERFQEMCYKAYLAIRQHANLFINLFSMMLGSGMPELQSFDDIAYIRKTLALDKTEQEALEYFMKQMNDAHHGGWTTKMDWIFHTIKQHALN
Sequence of recombinant human PI3Kα (6-His(p110-p85α)) (P27986 whole entry partner): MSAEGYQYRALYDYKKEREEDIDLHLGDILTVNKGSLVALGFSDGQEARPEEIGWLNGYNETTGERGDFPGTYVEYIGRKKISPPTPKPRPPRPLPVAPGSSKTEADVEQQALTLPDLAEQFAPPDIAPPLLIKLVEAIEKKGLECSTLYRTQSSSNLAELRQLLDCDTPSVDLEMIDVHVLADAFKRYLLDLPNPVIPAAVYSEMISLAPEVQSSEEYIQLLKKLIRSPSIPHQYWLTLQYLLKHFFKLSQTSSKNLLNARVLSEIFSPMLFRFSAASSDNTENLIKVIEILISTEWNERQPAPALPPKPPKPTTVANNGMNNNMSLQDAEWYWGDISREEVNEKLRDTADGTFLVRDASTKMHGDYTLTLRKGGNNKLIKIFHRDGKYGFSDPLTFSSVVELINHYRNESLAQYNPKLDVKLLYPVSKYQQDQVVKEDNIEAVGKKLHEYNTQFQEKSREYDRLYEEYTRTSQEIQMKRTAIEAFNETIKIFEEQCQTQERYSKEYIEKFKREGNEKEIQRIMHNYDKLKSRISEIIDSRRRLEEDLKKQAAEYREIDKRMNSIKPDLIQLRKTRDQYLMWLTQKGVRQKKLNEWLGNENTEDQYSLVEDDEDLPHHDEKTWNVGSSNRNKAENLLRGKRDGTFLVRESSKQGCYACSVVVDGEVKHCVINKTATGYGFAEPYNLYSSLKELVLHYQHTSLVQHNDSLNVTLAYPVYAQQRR
Protocol: (§1) Enzymatic Activity Assay for Recombinant Human PI3K α, β, δ and γ.
(§2) The activity of recombinant human PI3Kγ ((aa144-1102)-6His) and PI3Kα, β, δ (6-His(p110-p85α)) was determined by measuring the ADP level after phosphorylation of DiC8-PIP2 using a commercially available ADP-Glo™ kit from Promega. The assay was carried out in white low volume 384 well plates in a final volume of 14 μl at R.T. The assay conditions contained the following: 50 mM Tris buffer pH 7.4, 2.1 mM DTT, 3 mM MgCl2, 0.05% CHAPS, 20 μM ATP, 80 μM DiC8-PIP2 and 1.2 nM PI3Kα, β, γ or 0.6 nM PI3Kδ. Potential inhibitors were made up in DMSO and then diluted in the assay to give a final concentration of not exceeding 1% (v/v) DMSO. […] Routinely, inhibitors were pre-incubated with 3 μl of enzyme for 15 min prior to the addition of 2 μl substrate mixture for a further 60 min enzyme reaction. The phosphorylation was stopped with the addition of 3 μl ADP-Glo™ reagent (stop solution) followed by a 40 min incubation. Prior to detection 6 μl of ADP-Glo™ Kinase Detection Reagent was added and the plates were read in a micro plate reader using a Luminescence filter. All additions were followed by a short centrifugation step.

[2] = molecular target: recombinant human PI3Kδ (6-His(p110-p85α)) (Homo sapiens (Human), UniProt O00329); assay: Enzymatic activity assay for recombinant human PI3Kδ (ADP-Glo); settings: 0.6 nM PI3Kδ, 20 μM ATP, 80 μM DiC8-PIP2, ADP-Glo
Sequence of recombinant human PI3Kδ (6-His(p110-p85α)) (O00329 whole entry): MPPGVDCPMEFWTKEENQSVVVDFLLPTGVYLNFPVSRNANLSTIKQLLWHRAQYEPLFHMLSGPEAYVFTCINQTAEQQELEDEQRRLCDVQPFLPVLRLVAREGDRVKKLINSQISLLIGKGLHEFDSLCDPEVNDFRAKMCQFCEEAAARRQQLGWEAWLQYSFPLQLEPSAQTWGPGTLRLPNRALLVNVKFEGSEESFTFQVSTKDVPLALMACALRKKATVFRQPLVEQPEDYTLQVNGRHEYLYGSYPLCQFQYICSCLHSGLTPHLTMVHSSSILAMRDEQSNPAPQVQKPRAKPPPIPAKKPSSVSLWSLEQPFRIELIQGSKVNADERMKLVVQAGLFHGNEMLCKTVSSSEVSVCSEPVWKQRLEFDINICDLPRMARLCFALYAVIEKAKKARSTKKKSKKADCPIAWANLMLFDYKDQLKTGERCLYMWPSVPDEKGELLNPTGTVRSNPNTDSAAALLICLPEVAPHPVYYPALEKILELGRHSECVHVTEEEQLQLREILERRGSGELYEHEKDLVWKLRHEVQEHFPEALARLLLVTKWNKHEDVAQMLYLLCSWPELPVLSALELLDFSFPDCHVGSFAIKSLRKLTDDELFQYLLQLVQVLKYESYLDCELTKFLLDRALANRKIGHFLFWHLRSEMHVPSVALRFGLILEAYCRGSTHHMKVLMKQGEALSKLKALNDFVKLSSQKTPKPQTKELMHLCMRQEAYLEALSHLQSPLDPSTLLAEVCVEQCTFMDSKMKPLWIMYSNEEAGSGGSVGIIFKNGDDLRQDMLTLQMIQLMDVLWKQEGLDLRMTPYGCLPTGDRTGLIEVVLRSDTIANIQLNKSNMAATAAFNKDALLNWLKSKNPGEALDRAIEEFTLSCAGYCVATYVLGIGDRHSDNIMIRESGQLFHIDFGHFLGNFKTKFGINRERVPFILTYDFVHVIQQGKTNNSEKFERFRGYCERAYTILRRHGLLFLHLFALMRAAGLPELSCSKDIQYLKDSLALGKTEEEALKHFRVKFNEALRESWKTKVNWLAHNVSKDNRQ
Sequence of recombinant human PI3Kδ (6-His(p110-p85α)) (P27986 whole entry partner): as the sequence (P27986 whole entry partner) above
Protocol: as §1
as §2, with “PI3Kδ.” for “PI3Kδ. Potential inhibitors were made up in DMSO and then diluted in the assay to give a final concentration of not exceeding 1% (v/v) DMSO.”

[3] = molecular target: recombinant human PI3Kβ (6-His(p110-p85α)) (Homo sapiens (Human), UniProt P42338); assay: Enzymatic activity assay for recombinant human PI3Kβ (ADP-Glo); settings: 1.2 nM PI3Kβ, 20 μM ATP, 80 μM DiC8-PIP2, ADP-Glo
Sequence of recombinant human PI3Kβ (6-His(p110-p85α)) (P42338 whole entry): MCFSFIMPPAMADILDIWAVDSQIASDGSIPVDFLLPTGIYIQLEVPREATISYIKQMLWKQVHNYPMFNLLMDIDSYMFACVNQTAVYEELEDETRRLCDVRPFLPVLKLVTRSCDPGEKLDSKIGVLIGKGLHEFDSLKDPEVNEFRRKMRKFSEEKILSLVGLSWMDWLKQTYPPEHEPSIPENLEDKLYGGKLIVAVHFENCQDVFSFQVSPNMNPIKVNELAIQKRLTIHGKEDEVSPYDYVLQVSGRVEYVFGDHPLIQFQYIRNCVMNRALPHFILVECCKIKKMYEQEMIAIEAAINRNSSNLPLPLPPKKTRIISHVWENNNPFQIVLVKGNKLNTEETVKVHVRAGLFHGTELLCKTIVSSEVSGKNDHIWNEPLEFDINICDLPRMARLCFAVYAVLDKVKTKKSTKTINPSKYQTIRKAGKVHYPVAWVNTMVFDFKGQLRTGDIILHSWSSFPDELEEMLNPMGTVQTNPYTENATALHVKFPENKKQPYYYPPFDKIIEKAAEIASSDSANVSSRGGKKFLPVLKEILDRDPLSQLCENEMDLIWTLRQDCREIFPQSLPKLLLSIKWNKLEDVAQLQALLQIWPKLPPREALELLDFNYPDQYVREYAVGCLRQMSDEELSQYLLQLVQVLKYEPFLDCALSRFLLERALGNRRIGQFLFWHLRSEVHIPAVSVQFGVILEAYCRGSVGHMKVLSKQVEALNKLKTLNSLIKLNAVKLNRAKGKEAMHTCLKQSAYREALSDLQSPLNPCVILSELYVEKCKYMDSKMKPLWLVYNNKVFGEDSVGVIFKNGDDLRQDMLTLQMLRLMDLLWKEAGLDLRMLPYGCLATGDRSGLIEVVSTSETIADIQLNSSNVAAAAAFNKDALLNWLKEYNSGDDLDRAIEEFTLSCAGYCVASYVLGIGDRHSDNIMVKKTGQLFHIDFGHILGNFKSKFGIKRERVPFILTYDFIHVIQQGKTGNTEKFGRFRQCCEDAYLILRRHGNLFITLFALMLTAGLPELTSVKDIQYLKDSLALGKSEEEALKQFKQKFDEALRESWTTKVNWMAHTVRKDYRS
Sequence of recombinant human PI3Kβ (6-His(p110-p85α)) (P27986 whole entry partner): as the sequence (P27986 whole entry partner) above
Protocol: as §1, §2

[4] = molecular target: recombinant human PI3Kγ ((aa144-1102)-6His) (Homo sapiens (Human), UniProt P48736); assay: Enzymatic activity assay for recombinant human PI3Kγ (ADP-Glo); settings: 1.2 nM PI3Kγ, 20 μM ATP, 80 μM DiC8-PIP2, ADP-Glo
Sequence of recombinant human PI3Kγ ((aa144-1102)-6His) (P48736 144-1102): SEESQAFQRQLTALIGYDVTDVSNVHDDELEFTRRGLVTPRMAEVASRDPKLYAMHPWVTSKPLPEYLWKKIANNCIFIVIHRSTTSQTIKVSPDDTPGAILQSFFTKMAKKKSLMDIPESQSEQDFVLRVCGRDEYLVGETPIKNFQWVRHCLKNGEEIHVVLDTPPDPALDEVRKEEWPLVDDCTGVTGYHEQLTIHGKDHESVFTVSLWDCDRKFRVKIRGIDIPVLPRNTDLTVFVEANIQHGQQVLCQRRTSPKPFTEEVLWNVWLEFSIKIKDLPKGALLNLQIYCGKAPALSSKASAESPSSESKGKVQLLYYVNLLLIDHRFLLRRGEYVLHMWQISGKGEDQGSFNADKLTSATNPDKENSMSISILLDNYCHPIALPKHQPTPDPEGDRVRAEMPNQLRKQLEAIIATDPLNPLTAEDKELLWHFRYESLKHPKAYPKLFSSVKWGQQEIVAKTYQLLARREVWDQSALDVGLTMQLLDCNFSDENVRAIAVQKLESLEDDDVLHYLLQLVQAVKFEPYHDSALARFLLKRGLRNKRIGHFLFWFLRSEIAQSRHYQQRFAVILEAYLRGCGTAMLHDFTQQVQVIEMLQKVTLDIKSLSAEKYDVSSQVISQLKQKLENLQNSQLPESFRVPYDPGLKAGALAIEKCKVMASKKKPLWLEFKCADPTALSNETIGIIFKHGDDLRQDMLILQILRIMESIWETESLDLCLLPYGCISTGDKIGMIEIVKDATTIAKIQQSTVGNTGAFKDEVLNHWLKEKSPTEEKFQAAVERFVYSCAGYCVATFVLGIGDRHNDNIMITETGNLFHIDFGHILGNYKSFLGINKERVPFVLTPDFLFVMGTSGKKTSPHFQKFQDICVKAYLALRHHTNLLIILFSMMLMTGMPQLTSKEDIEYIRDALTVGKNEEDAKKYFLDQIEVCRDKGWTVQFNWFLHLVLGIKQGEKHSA
Protocol: as §1
as §2, with “PI3Kδ.” for “PI3Kδ. Potential inhibitors were made up in DMSO and then diluted in the assay to give a final concentration of not exceeding 1% (v/v) DMSO.”

Compound	IC50 [1]	IC50 [2]	IC50 [3]	IC50 [4]
Cc1nc(Nc2cccc(N3CCCC3=O)n2)sc1-c1cc2c(c(S(C)(=O)=O)c1)C(=O)N([C@@H](C)C1CC1)C2 [Example 1, 2-[(1S)-1-Cyclopropylethyl]-5-(4-methyl-2-{[6-(2-oxopyrrolidin-1-yl)pyridin-2-yl]amino}-1,3-thiazol-5-yl)-7-(methylsulfonyl)-2,3-dihydro-1H-isoindol-1-one]	55 nM	0.7 nM	1360 nM	0.9 nM
CC(=O)Nc1cccc(Nc2nc(C)c(-c3cc4c(c(S(C)(=O)=O)c3)C(=O)N([C@@H](C)C3CC3)C4)s2)n1 [Example 2, N-{6-[(5-{2-[(1S)-1-Cyclopropylethyl]-7-(methylsulfonyl)-1-oxo-2,3-dihydro-1H-isoindol-5-yl}-4-methyl-1,3-thiazol-2-yl)amino]pyridin-2-yl}acetamide]	263 nM	19.6 nM	3730 nM	0.9 nM
CC(=O)N(C)c1cccc(Nc2nc(C)c(-c3cc4c(c(S(C)(=O)=O)c3)C(=O)N([C@@H](C)C3CC3)C4)s2)n1 [Example 3, N-{6-[(5-{2-[(1S)-1-Cyclopropylethyl]-7-(methylsulfonyl)-1-oxo-2,3-dihydro-1H-isoindol-5-yl}-4-methyl-1,3-thiazol-2-yl)amino]pyridin-2-yl}-N-methylacetamide]	127 nM	1.4 nM	1180 nM	0.8 nM
Cc1nc(Nc2cccc(N3CCCCC3=O)n2)sc1-c1cc2c(c(S(C)(=O)=O)c1)C(=O)N([C@@H](C)C1CC1)C2 [Example 4, 2-[(1S)-1-Cyclopropylethyl]-5-(4-methyl-2-{[6-(2-oxopiperidin-1-yl)pyridin-2-yl]amino}-1,3-thiazol-5-yl)-7-(methylsulfonyl)-2,3-dihydro-1H-isoindol-1-one]	16 nM	–	250 nM	1 nM
Cc1nc(Nc2cccc(N3CCN(C)C3=O)n2)sc1-c1cc2c(c(S(C)(=O)=O)c1)C(=O)N([C@@H](C)C1CC1)C2 [Example 5, 2-[(1S)-1-Cyclopropylethyl]-5-(4-methyl-2-{[6-(3-methyl-2-oxoimidazolidin-1-yl)pyridin-2-yl]amino}-1,3-thiazol-5-yl)-7-(methylsulfonyl)-2,3-dihydro-1H-isoindol-1-one]	38 nM	0.7 nM	4710 nM	1.2 nM
Cc1nc(Nc2cccc(N3CCNC3=O)n2)sc1-c1cc2c(c(S(C)(=O)=O)c1)C(=O)N([C@@H](C)C1CC1)C2 [Example 6, 2-[(1S)-1-Cyclopropylethyl]-5-(4-methyl-2-{[6-(2-oxoimidazolidin-1-yl)pyridin-2-yl]amino}-1,3-thiazol-5-yl)-7-(methylsulfonyl)-2,3-dihydro-1H-isoindol-1-one]	23 nM	0.7 nM	219 nM	0.8 nM
Cc1nc(Nc2cccc(N3CCOCC3=O)n2)sc1-c1cc2c(c(S(C)(=O)=O)c1)C(=O)N([C@@H](C)C1CC1)C2 [Example 7, 2-[(1S)-1-Cyclopropylethyl]-5-(4-methyl-2-{[6-(3-oxomorpholin-4-yl)pyridin-2-yl]amino}-1,3-thiazol-5-yl)-7-(methylsulfonyl)-2,3-dihydro-1H-isoindol-1-one]	57 nM	–	688 nM	0.9 nM
Cc1nc(Nc2cccc(N3CCCOC3=O)n2)sc1-c1cc2c(c(S(C)(=O)=O)c1)C(=O)N([C@@H](C)C1CC1)C2 [Example 8, 2-[(1S)-1-Cyclopropylethyl]-5-(4-methyl-2-{[6-(2-oxo-1,3-oxazinan-3-yl)pyridin-2-yl]amino}-1,3-thiazol-5-yl)-7-(methylsulfonyl)-2,3-dihydro-1H-isoindol-1-one]	23 nM	1.2 nM	324 nM	1.3 nM
Cc1nc(Nc2cccc(N3Cc4ncccc4C3=O)n2)sc1-c1cc2c(c(S(C)(=O)=O)c1)C(=O)N([C@@H](C)C1CC1)C2 [Example 9, 6-{6-[(5-{2-[(1S)-1-Cyclopropylethyl]-7-(methylsulfonyl)-1-oxo-2,3-dihydro-1H-isoindol-5-yl}-4-methyl-1,3-thiazol-2-yl)amino]pyridin-2-yl}-6,7-dihydro-5H-pyrrolo[3,4-b]pyridin-5-one]	11400 nM	2.7 nM	33300 nM	1 nM
Cc1nc(Nc2cccc(N3CCCC3=O)n2)sc1-c1cc2c(c(S(C)(=O)=O)c1)C(=O)N([C@@H](C)C(F)(F)F)C2 [Example 10, 5-(4-Methyl-2-{[6-(2-oxopyrrolidin-1-yl)pyridin-2-yl]amino}-1,3-thiazol-5-yl)-7-(methylsulfonyl)-2-[(2S)-1,1,1-trifluoropropan-2-yl]-2,3-dihydro-1H-isoindol-1-one]	78 nM	–	575 nM	0.9 nM
Cc1nc(Nc2cccc(N3CCNC3=O)n2)sc1-c1cc2c(c(S(C)(=O)=O)c1)C(=O)N([C@@H](C)C(F)(F)F)C2 [Example 11, 5-(4-Methyl-2-{[6-(2-oxoimidazolidin-1-yl)pyridin-2-yl]amino}-1,3-thiazol-5-yl)-7-(methylsulfonyl)-2-[(2S)-1,1,1-trifluoropropan-2-yl]-2,3-dihydro-1H-isoindol-1-one]	54 nM	1.2 nM	291 nM	0.8 nM
Cc1nc(Nc2cccc(N3CCOC3=O)n2)sc1-c1cc2c(c(S(C)(=O)=O)c1)C(=O)N([C@@H](C)C(F)(F)F)C2 [Example 12, 5-(4-Methyl-2-{[6-(2-oxo-1,3-oxazolidin-3-yl)pyridin-2-yl]amino}-1,3-thiazol-5-yl)-7-(methylsulfonyl)-2-[(2S)-1,1,1-trifluoropropan-2-yl]-2,3-dihydro-1H-isoindol-1-one]	300 nM	1.6 nM	4100 nM	0.9 nM
CNS(=O)(=O)c1cc(-c2sc(Nc3cccc(N(C)C(C)=O)n3)nc2C)cc2c1C(=O)N([C@@H](C)C1CC1)C2 [Example 13, N-{6-[(5-{2-[(1S)-1-Cyclopropylethyl]-7-(methylsulfamoyl)-1-oxo-2,3-dihydro-1H-isoindol-5-yl}-4-methyl-1,3-thiazol-2-yl)amino]pyridin-2-yl}-N-methylacetamide]	68 nM	1.1 nM	1570 nM	0.8 nM
CNS(=O)(=O)c1cc(-c2sc(Nc3cccc(N4CCCCC4=O)n3)nc2C)cc2c1C(=O)N([C@@H](C)C1CC1)C2 [Example 19, 2-[(1S)-1-Cyclopropylethyl]-N-methyl-6-(4-methyl-2-{[6-(2-oxopiperidin-1-yl)pyridin-2-yl]amino}-1,3-thiazol-5-yl)-3-oxo-2,3-dihydro-1H-isoindole-4-sulfonamide]	18 nM	–	168 nM	–
Cc1nc(Nc2cccc(N3CCOCC3=O)n2)sc1-c1cc2c(c(S(=O)(=O)NC3COC3)c1)C(=O)N([C@@H](C)C1CC1)C2 [Example 31, 2-[(1S)-1-Cyclopropylethyl]-6-(4-methyl-2-{[6-(3-oxomorpholin-4-yl)pyridin-2-yl]amino}-1,3-thiazol-5-yl)-N-(oxetan-3-yl)-3-oxo-2,3-dihydro-1H-isoindole-4-sulfonamide]	85 nM	–	596 nM	0.8 nM
CNS(=O)(=O)c1cc(-c2sc(Nc3cccc(N4CCCNCC4=O)n3)nc2C)cc2c1C(=O)N([C@@H](C)C1CC1)C2 [Example 52, 2-[(1S)-1-Cyclopropylethyl]-N-methyl-6-(4-methyl-2-{[6-(2-oxo-1,4-diazepan-1-yl)pyridin-2-yl]amino}-1,3-thiazol-5-yl)-3-oxo-2,3-dihydro-1H-isoindole-4-sulfonamide]	–	18.9 nM	–	22.5 nM
